Data published in US20250051283A1, “THERAPEUTIC COMPOUNDS AND METHODS” (priority 2023, published 2025).
Read-outs that look alike come from different tables or passages of the source.

Columns and labels:
[1] = molecular target: EV-D68 2A^pro (Enterovirus D68, UniProt A0A097BW19); experiment: FRET-based enzymatic assay of EV-D68 2Apro inhibition; assay type: biochemical; conditions: for IC50: read-out: Enzymatic inhibitory activity IC50
Method: (§1) Protein expression and purification. EV-D68 2A^pro gene from strain US/KY/14-18953 was ordered from Genscript (Piscataway, NJ) in pET28b(+) vector with E. coli codon optimization. 2A^pro gene was subcloned into pE-SUMOstar vector according to the manufacturers protocol. Plasmid encoding WT-2A^pro was transformed into BL21(DE3) competent E. coli cells, and a single colony was picked and used to inoculate 10 mL of L.B. grown supplemented with 50 μg/mL kanamycin at 37° C. at 250 rpm. The 10 mL inoculant was added to 1 L of L.B. with 50 μg/mL kanamycin and grown to an OD600 of 0.8-1.0, cooled to 18° C., then induced using 0.5 mM IPTG. Induced cultures were incubated at 18° C. for an additional 24 h, then harvested and resuspended in lysis buffer (25 mM Tris (pH 7.5); 750 mM NaCl, 2 mM DTT with 0.5 mg/mL lysozyme, 0.5 mM PMSF and 0.02 mg/mL DNase I) and lysed with alternating sonication and French press cycles. The cell debris were removed by centrifugation at 12,000×g for 45 min […]. The supernatant was incubated with Ni-NTA resin for over 2 h at 4° C. on a rotator. The Ni-NTA resin was thoroughly washed with 50 mM imidazole in wash buffer (50 mM Tris (pH 7.5), 150 mM NaCl, and 2 mM DTT); for the SUMO-tagged protein, the protein was directly eluted with 300 mM imidazole; for the nontagged 2A^pro Ni-NTA resin was treated with SUMO Protease 1 to remove the SUMO tag, then 2A^pro was washed off from the column with 10 mM imidazole in wash buffer. The imidazole was removed via dialysis or 10 K molecular weight cut-off centrifugal concentrator spin column. The purity of the protein was confirmed with SDS-PAGE. The protein concentration was determined by classic BCA assay using bovine serum albumin as a standard. EV-D68 3C^pro in pET28b(+) vector was expressed as previously described^10.
(§2) Peptide synthesis. The FRET substrate of EV-D68 2A^pro, Dabcyl-KIRIVNT/GPGFGGE-Edans, was synthesized using the Fmoc solid phase synthesis strategy.
(§3) Enzymatic assays. The reaction buffer contains 50 mM Tris (pH7.0), 150 mM NaCl, 10% Glycerol, and 2 mM DTT, and the reaction was carried out at 30° C. in Cytation 5 imaging reader (Fisher Scientific) with EX360/40-EM460/40 filter. Reactions were monitored every 90 sec. […] The reaction was initiated by adding 20 μM of FRET substrate, and the reaction was monitored for 2 hours and initial velocity was calculated for the first 30 minutes via linear regression.

[2] = test system: EV-D68 US/MO/14-18947; experiment: CPE assay (neutral red) with EV-D68 US/MO/14-18947 in R.D. cells; assay type: cell-based, Enterovirus D68
Method: Cell lines and viruses. Human rhabdomyosarcoma (R.D., ATCC, CCL-136) cells were maintained at 37° C. in a 5% CO2 atmosphere and cultured in Dulbecco's modified Eagle's medium (DMEM) supplemented with 10% fetal bovine serum (FBS) and 1% penicillin-streptomycin antibiotics. The following reagents were obtained through BEI Resources, NIAID, NIH: Human Enterovirus D68, US/MO/14-18949, NR-49130; Enterovirus D68, US/MO/14-18947, NR-49129; Enterovirus D68, US/IL/14-18952, NR-49131; Enterovirus D68, US/KY/14-18953, NR-49132; Enterovirus D68, US/IL/14-18956, NR-49133.
Antiviral assays. Cells for antiviral assays were seeded and grown overnight at 37° C. in a 5% CO2 atmosphere for ˜90% confluency the next day. For all infections, cells were washed with PBS containing magnesium and calcium and infected with virus diluted in DMEM with 2% FBS and 30 mM MgCl2. Viruses were incubated for at least 1 h at 33° C. in a 5% CO2 atmosphere, followed by the addition of compound as well as 1% penicillin-streptomycin. For CC50 measurements, the experiment was performed similarly but excluded viral infection. For cytopathic effect (CPE) assays, cells were stained with 66 µg/mL neutral red for 2 h and neutral red uptake was measured at absorbance 540 nm using a Multiskan FC Microplate Photometer (ThermoFisher Scientific). The EC50 and CC50 values were calculated from best-fit dose response curves using GraphPad Prism. For plaque reduction assays, an 1.2% avicel microcrystalline cellulose (FMC BioPolymer, Philadelphia, PA) overlay was used and cells were stained after 3 days as previously described^26.

[3] = molecular target: T1, EV-D68 2A^pro (WT-2A^pro, strain US/KY/14-18953, expressed in E. coli BL21(DE3) from pE-SUMOstar vector) (enterovirus D68, UniProt A0A097BW19); experiment: FRET-based enzymatic assay of EV-D68 2A^pro inhibition (FRET substrate Dabcyl-KIRIVNT/GPGFGGE-Edans); assay type: biochemical
T1 construct: E. coli-codon-optimised gene, pE-SUMOstar, His-SUMO tag (removed with SUMO protease for nontagged form), E. coli BL21(DE3), Ni-NTA; 7JRE is the C107A mutant
Method: (§4) FIG. 4. […] Key structural variations compared to telaprevir were highlighted in red. Enzymatic inhibitory activity IC50 value was determined in the FRET-based assay. Antiviral EC50 value was determined in the CPE assay with EV-D68 US/MO/14-18947 in R.D. cells. Cytotoxicity CC50 value was determined using the neutral red uptake method in R.D. cells. The results are the mean±standard deviation of two independent experiments with three repeats in each experiment.
as §4, with “5.” for “4.”, “Jun8861” for “telaprevir”
as §1, §2, §3

[4] = CPE assay, EV-D68 US/MO/14-18947 in R.D. cells
[5] = Enterovirus D, EVD68, RD, read-out: Antiviral EC50, CPE assay, EV-D68 US/MO/14-18947 in R.D. cells

Q: `CC(C)[C@H](NC(=O)[C@@H]1[C@H]2CCC[C@H]2CN1C(=O)[C@@H](NC(=O)CC12CC3CC(CC(C3)C1)C2)C(C)(C)C)C(=O)C(=O)NC1CC1` [Jun11718, (1S,3aR,6aS)-2-((S)-2-(2-((3S,5S,7S)-adamantan-1-yl)acetamido)-3,3-dimethylbutanoyl)-N—((S)-1-(cyclopropylamino)-4-methyl-1,2-dioxopentan-3-yl)octahydrocyclopenta[c]pyrrole-1-carboxamide] was tested. Which “enzymatic inhibition, in words, relative to the named comparator” value [1] did it give?
A: comparable enzymatic inhibition and antiviral activity as Jun8861

Q: What about the “antiviral activity, in words, relative to the named comparator” value [2, 4] of the same compound?
A: comparable enzymatic inhibition and antiviral activity as Jun8861

Q: How did the “enzymatic inhibition, in words, relative to the named comparator” value [1] turn out when `CCC[C@H](NC(=O)[C@@H]1[C@H]2CCC[C@H]2CN1C(=O)[C@@H](NC(=O)OCc1ccccc1)C(C)(C)C)C(=O)C(=O)NC1CC1` [Jun7426, Benzyl ((S)-1-((1S,3aR,6aS)-1-(((S)-1-(cyclopropylamino)-1,2-dioxohexan-3-yl)carbamoyl)hexahydrocyclopenta[c]pyrrol-2(1H)-yl)-3,3-dimethyl-1-oxobutan-2-yl)carbamate] was run?
A: reduced enzymatic inhibition and antiviral activity compared to telaprevir

Q: What about the “antiviral activity, in words, relative to the named comparator” value [2, 4] of the same compound?
A: reduced enzymatic inhibition and antiviral activity compared to telaprevir

Q: What about the IC50 [3] of the same compound?
A: 760 ± 100 nM

Q: What does the source list for `CCC[C@H](NC(=O)[C@@H]1[C@H]2CCC[C@H]2CN1C(=O)[C@@H](NC(=O)NC12CC3CC(CC(C3)C1)C2)C(C)(C)C)C(=O)C(=O)NC1CC1` [Jun1023, (1S)-2-((S)-2-(3-((3R,5R,7R)-adamantan-1-yl)ureido)-3,3-dimethylbutanoyl)-N—((S)-1-(cyclopropylamino)-1,2-dioxohexan-3-yl)octahydrocyclopenta[c]pyrrole-1-carboxamide]?
A: enzymatic inhibition, in words, relative to the named comparator [1]: reduced enzymatic inhibition; EC50 ([2]; CPE assay, EV-D68 US/MO/14-18947 in R.D. cells, read-out: Antiviral EC50): 700 nM

Q: For `CCC[C@H](NC(=O)[C@@H]1[C@H]2CCC[C@H]2CN1C(=O)OCc1ccccc1)C(=O)C(=O)NC1CC1` [Jun7424, Benzyl (1S,3aR,6aS)-1-(((S)-1-(cyclopropylamino)-1,2-dioxohexan-3-yl)carbamoyl)hexahydrocyclopenta[c]pyrrole-2(1H)-carboxylate], which IC50 [1] is on record?
A: 4350 nM

Q: Which EC50 [2, 5] does the source give for `CCC[C@H](NC(=O)[C@@H]1[C@H]2CCC[C@H]2CN1C(=O)[C@@H](NC(=O)[C@@H](NC(=O)OCc1ccccc1)C1CCCCC1)C(C)(C)C)C(=O)C(=O)NC1CC1` [Jun7453, Benzyl ((S)-1-cyclohexyl-2-(((S)-1-((1S,3aR,6aS)-1-(((S)-1-(cyclopropylamino)-1,2-dioxohexan-3-yl)carbamoyl)hexahydrocyclopenta[c]pyrrol-2(1H)-yl)-3,3-dimethyl-1-oxobutan-2-yl)amino)-2-oxoethyl)carbamate] here?
A: 630 nM

Q: And the IC50 [3]?
A: 360 ± 20 nM

Q: With “(1S)-2-((S)-2-(2-((3S,5S,7S)-adamantan-1-yl)acetamido)-3,3-dimethylbutanoyl)-N-((2S)-4-(cyclopropylamino)-3-hydroxy-4-oxo-1-(thiophen-3-yl)butan-2 yl)octahydrocyclopenta[c]pyrrole-1-carboxamide [Jun11818]” as the compound, how does the “enzymatic inhibition, in words, relative to the named comparator” value [1] read?
A: comparable enzymatic inhibition and antiviral activity as Jun11385

Q: What about the “antiviral activity, in words, relative to the named comparator” value [2, 4] of the same compound?
A: comparable enzymatic inhibition and antiviral activity as Jun11385

Q: For `CCC[C@H](NC(=O)[C@@H]1[C@H]2CCC[C@H]2CN1C(=O)[C@@H](NC(=O)NC(C)(C)C)C(C)(C)C)C(=O)C(=O)NC1CC1` [Jun9475, (1S,3aR,6aS)-2-((S)-2-(3-(tert-butyl)ureido)-3,3-dimethylbutanoyl)-N—((S)-1-(cyclopropylamino)-1,2-dioxohexan-3-yl)octahydrocyclopenta[c]pyrrole-1-carboxamide], which IC50 [1] is on record?
A: 1160 nM

Q: Which IC50 [1] does the source give for `CC(C)(C)C(NC(=O)CC12CC3CC(CC(C3)C1)C2)C(=O)N1CC2CCCC2C1C(=O)NC(Cc1ccc(F)cc1)C(=O)C(=O)NC1CC1` [Jun11763, (1S,3aR,6aS)-2-((S)-2-(2-((3S,5S,7S)-adamantan-1-yl)acetamido)-3,3-dimethylbutanoyl)-N—((S)-4-(cyclopropylamino)-1-(4-fluorophenyl)-3,4-dioxobutan-2-yl)octahydrocyclo-penta[c]pyrrole-1-carboxamide] here?
A: 150 nM

Q: What about the EC50 [2, 5] of the same compound?
A: 190 nM

Q: With `CC(C)(C)[C@H](NC(=O)CC12CC3CC(CC(C3)C1)C2)C(=O)N1C[C@@H]2CCC[C@@H]2[C@H]1C(=O)N[C@@H](Cc1c[nH]c2ccccc12)C(=O)C(=O)NC1CC1` [Jun11862, (1S,3aR,6aS)-2-((S)-2-(2-((3S,5S,7S)-adamantan-1-yl)acetamido)-3,3-dimethylbutanoyl)-N—((S)-4-(cyclopropylamino)-1-(1H-indol-3-yl)-3,4-dioxobutan-2-yl)octahydrocyclopenta[c]pyrrole-1-carboxamide] as the compound, how does the “enzymatic inhibition, in words, relative to the named comparator” value [1] read?
A: comparable enzymatic inhibition and antiviral activity as Jun11385

Q: What about the “antiviral activity, in words, relative to the named comparator” value [2, 4] of the same compound?
A: comparable enzymatic inhibition and antiviral activity as Jun11385

Q: For `CCC[C@H](NC(=O)[C@@H]1[C@H]2CCC[C@H]2CN1C(=O)[C@@H](NC(C)=O)C(C)(C)C)C(=O)C(=O)NC1CC1` [Jun8862, (1S,3aR,6aS)-2-((S)-2-acetamido-3,3-dimethylbutanoyl)-N—((S)-1-(cyclopropylamino)-1,2-dioxohexan-3-yl)octahydrocyclopenta[c]pyrrole-1-carboxamide], which IC50 [1] is on record?
A: 940 nM

Q: Which “antiviral activity, in words, relative to the named comparator” value [2, 4] does the source give for `CC(C)(C)[C@H](NC(=O)CC12CC3CC(CC(C3)C1)C2)C(=O)N1C[C@@H]2CCC[C@@H]2[C@H]1C(=O)N[C@@H](CC1CC1)C(=O)C(=O)NC1CC1` [Jun11761, (1S,3aR,6aS)-2-((S)-2-(2-((3S,5S,7S)-adamantan-1-yl)acetamido)-3,3-dimethylbutanoyl)-N—((S)-1-cyclopropyl-4-(cyclopropylamino)-3,4-dioxobutan-2-yl)octahydrocyclopenta[c]pyrrole-1-carboxamide] here?
A: failed to improve the antiviral potency compared to Jun8861

Q: What about the IC50 [3] of the same compound?
A: 140 ± 10 nM
